# Test results reported in patent US11723889B2, “Amyloid fiber formation limiter or inhibitor” (Omoidesouzou Co., Ltd., priority 2014, dated 2023).
# How the values were obtained:
# Format in all cases: in vivo, human
# [1] = system: dementia; assay: Oral tranilast in a patient with dementia (Case 4), testing methods for dementia HDS-R and MMSE
# Method: (§1) 2. Confirmation that the agent for suppressing or inhibiting an amyloid fibril formation of the present invention has a therapeutic effect against cerebral amyloidosis. Because it was shown that tranilast has the effect of suppressing amyloid fibril formation in the skin, whether dementia and Alzheimer's disease arising from amyloid fibril deposition in the brain could be ameliorated was studied. A patient with dementia (patient two) was administered orally with a 100 mg capsule of tranilast (brand name: Rizaben, Kissei Pharmaceutical Co., Ltd.) three times a day.
# [2] = system: cutaneous amyloidosis; assay: Oral tranilast treatment of patients with cutaneous amyloidosis / cutaneous lichen amyloidosis (Cases 1-3), clinical observation of skin symptoms
# Excerpt: 1. Confirmation that the agent for suppressing or inhibiting an amyloid fibril formation of the present invention has a therapeutic effect against cutaneous amyloidosis.
# patient one observed with symptoms of cutaneous amyloidosis specific pigment-associating invasion and itch in the upper back had been treated without tranilast for an initial duration of 4 years, however, no therapeutic effect was observed. Therefore, the treatment shifted to the use of tranilast. The above-mentioned patient was administered orally with a 100 mg capsule of tranilast (brand name: Rizaben, Kissei Pharmaceutical Co., Ltd.) three times a day. […] Worsening or relapse of rash was not observed at least 3 years afterwards.
# Therefore, the treatment shifted to the use of tranilast. The above-mentioned patient was administered orally with a 100 mg capsule of tranilast (brand name: Rizaben, Kissei Pharmaceutical Co., Ltd.) three times a day. From day 16 (Jul. 16, 2014) (see FIG. 1B) after the start of oral administration on Jun. […] The degree of amelioration of rash increased day by day (see FIGS. 1C to 1E).
# A patient observed with chronic eczema with rash along with strong itch in the upper back for several years started the treatment with tranilast. The patient was administered orally with a 100 mg capsule of tranilast (brand name: Rizaben, Kissei Pharmaceutical Co., Ltd.) three times a day. When the oral administration started on Jul. 29, 2014, amyloid deposited brown papule was densely lichenified (see FIG. 2A).
# [3] = system: Alzheimer's disease; assay: Oral tranilast in a patient with Alzheimer's disease (Case 5), testing methods for dementia HDS-R and MMSE
# Method: as §1, with “Alzheimer's disease (person)” for “dementia (patient two)”, “day. About 5 months after the start of administration of tranilast on Oct.” for “day.”
# [4] = 1 year and 4 months after start of administration (December 2013)
# [5] = Case 1, 100 mg capsule orally three times a day, within another 1 month (about 2 months after start)
smiles,measurement,setting,value
"COc1ccc(/C=C/C(=O)Nc2ccccc2C(=O)O)cc1OC [tranilast, N-(3,4-dimethoxycinnamoyl)anthranilic acid]",effect by two testing methods for dementia (HDS-R and MMSE),"[1]; 100 mg capsule orally three times a day, 1 year and 4 months after start",clear ameliorating effect
same,HDS-R Value,[1]; [4],20
same,MMSE Value,[1]; [4],25
same,HDS-R Value,"[1]; 5 months after start of administration (January 2013), 23 at 1 year and 5 months before start",15
same,MMSE Value,"[1]; 5 months after start of administration (January 2013), 27 at 1 year and 5 months before, 28 at 3 years and 10 months before",22
same,pigmentation,"[2]; Case 1, upper back, 100 mg capsule orally three times a day, about 1 month after start of oral administration",started to thin
same,itch,[2]; [5],reduced
same,rash,[2]; [5],largely ameliorated
same,worsening or relapse of rash,"[2]; Case 1, at least 3 years afterwards",not observed
same,amyloid deposited brown papule,"[2]; Case 2, 100 mg capsule orally three times a day, day 151 after start of oral administration",almost disappeared
same,amyloid deposited brown papule,"[2]; Case 2, 100 mg capsule orally three times a day, from day 16 after start of oral administration","thinned, decreased in size, and ameliorated clearly"
same,condition (papule almost disappeared) maintained until,"[2]; Case 2, day after start of oral administration",≥ 238 days
same,symptoms (densely lichenified amyloid deposited brown papule),"[2]; Case 3, upper back, 100 mg capsule orally three times a day, day 15 after start",improvement in the symptoms was observed
same,symptoms (densely lichenified amyloid deposited brown papule),"[2]; Case 3, 100 mg capsule orally three times a day, day 29 after start",clear improvement in the symptoms was observed
same,improved condition maintained until,"[2]; Case 3, day after start of oral administration",≥ 89 days
same,effect on the symptoms of Alzheimer's type dementia by HDS-R and MMSE,"[3]; 100 mg capsule orally three times a day, about 5 months after start",clear ameliorating effect
same,HDS-R Value,"[3]; about 5 months after start (Mar. 19, 2015), value at start of administration 9",12
same,MMSE Value,"[3]; about 5 months after start (Mar. 19, 2015), value at start of administration 14",22
